Source: patent US5656600A, “α-ketoamide derivatives as inhibitors of thrombosis” (Corvas International, Inc., priority 1993, dated 1997)
≈ marks a conversion by molar mass, not a printed value. Residues, ends and D or L forms follow the SMILES beside them. *: point of attachment. Pentanoyl(2-Pr) = CCCC(CCC)C(=O)*

Experiments:
α-thrombin = α-thrombin (Homo sapiens, UniProt P00734); assay: Amidolytic thrombin assay (inhibition constant Ki); assay type: biochemical; details: chromogenic substrate Pefachrome t-PA, HBSA pH 7.5; slow-binding (kon/koff) or Dixon analysis
Protocol: The ability of the compounds of the present invention to act as inhibitors of thrombin catalytic activity in comparison to Hirulog-1 (compound 25) was assessed by determining their inhibition constant, Ki.
Enzyme activity was determined using the chromogenic substrate Pefachrome t-PA (CH3 SO2 -D-hexahydrotyrosine-glycyl-L-arginine-p-nitroaniline, obtained from Pentapharm Ltd.). The substrate was reconstituted in deionized water prior to use.
Ki values were determined for test compounds using the following methodologies:
The assay was conducted by combining in appropriate wells of a Corning microtiter plate, 50 μL of HBSA, 50 μL of the test compound at a specified concentration diluted in HBSA (or HBSA alone for Vo(uninhibited velocity) measurement), and 50 μL of the chromogenic substrate diluted in HBSA. At time zero, 50 μL of α-thrombin diluted in HBSA, was added to the wells yielding a final concentration of 0.25 nM in a total volume of 200 μL. Velocities of Pefachrome-tPA substrate hydrolysis which occurred over a 40 minute time period was measured by the change in absorbance at 405 nm using a Thermo Max® Kinetic Microplate Reader. […] The linear relationship between kobs and inhibitor concentration is indicative of a competitive, one step mechanism and was used to calculate kon and koff which yielded a value for Ki after taking into consideration the concentration and Km (38.5 μM) of the substrate in the assay.
The initial velocity of Pefachrome t-PA hydrolysis was measured by the change in absorbance at 405 nm using a Thermo Max® Kinetic Microplate Reader over a 2 minute period in which less than 5% of the added substrate was utilized. The relationship between the ratio of the inhibited steady-state velocity (Vs) and the uninhibited velocity (Vo) to the concentration of inhibitor [It ], was analyzed using Equation 1 developed by Morrison , J. F., Biochim. Biophys. Acta, 185:269 (1969) for inhibitors which deplete a significant amount of the total enzyme (Et) over the course of the assay (designated tight binding inhibitors):
Vs/Vo={([Et ]-[It ]-Ki*)+[([It ]+Ki*-[Et ])^2
Ki* was determined by fitting Vs/Vo verses [I] using Equation 1 by non-linear regression analysis.
The best fit of the data for both compounds was to the equation describing competitive inhibition.

thrombin = thrombin (Homo sapiens, UniProt P00734); details: cited from earlier work
arginyl aminopeptidase = details: Ocain et al.; cited from earlier work
cytosol aminopeptidase = details: Ocain et al.; cited from earlier work
[1] = biological target: microsomal aminopeptidase; details: Ocain et al.; cited from earlier work

Molecule: CCCC(CCC)C(=O)N[C@@H](CC(=O)O)C(=O)N1CCC[C@H]1C(=O)N[C@@H](CCCNC(=N)N)C(=O)C(=O)NCC(=O)NCC(=O)NCC(=O)NCC(=O)NCC(=O)N[C@@H](CC(N)=O)C(=O)NCC(=O)N[C@@H](CC(=O)O)C(=O)N[C@@H](Cc1ccccc1)C(=O)N[C@@H](CCC(=O)O)C(=O)N[C@@H](CCC(=O)O)C(=O)N[C@H](C(=O)N1CCC[C@H]1C(=O)N[C@@H](CCC(=O)O)C(=O)N[C@@H](CCC(=O)O)C(=O)N[C@@H](Cc1ccc(O)cc1)C(=O)N[C@@H](CC(C)C)C(=O)O)[C@@H](C)CC [Compound 10]
- Ki (α-thrombin): 0.04 nM

Molecule: N-acetyl--D--Phe--Pro Arg--[.psi.C(=O)--CH2 ]--CH2 --CH2 --CH2 -(C=O)--Gln--Ser--His--Asn--Asp--Gly--Asp--Phe--Glu--Glu--Ile--Pro--Glu--Glu--Tyr--Leu--Gln
- Ki (thrombin; literature values, read-out: Ki (thrombin), reported): 0.14 nM

Molecule: CCCC(CCC)C(=O)N[C@@H](CC(=O)O)C(=O)N1CCC[C@H]1C(=O)N[C@@H](CCCNC(=N)N)C(=O)C(=O)NCC(=O)NCC(=O)NCC(=O)NCC(=O)NCC(=O)N[C@@H](CCCNC(=N)N)C(=O)NCC(=O)N[C@@H](CC(=O)O)C(=O)N[C@@H](Cc1ccccc1)C(=O)N[C@@H](CCC(=O)O)C(=O)N[C@@H](CCC(=O)O)C(=O)N[C@H](C(=O)N1CCC[C@H]1C(=O)N[C@@H](CCC(=O)O)C(=O)N[C@@H](CCC(=O)O)C(=O)N[C@@H](Cc1ccc(O)cc1)C(=O)N[C@@H](CC(C)C)C(=O)O)[C@@H](C)CC [Compound 11]
- Ki (α-thrombin): 0.0078 nM

Molecule: N=C(N)NCCC[C@@H]1NC(=O)[C@@H]2CCCN2C(=O)[C@@H](NC=O)CNC(=O)/C=C/[C@H](Cc2ccc(O)cc2)NC(=O)[C@@H](Cc2ccccc2)NC(=O)C1=O [Cyclotheonamide A]
- IC50 (thrombin), reported (thrombin; Fusetani et al., Hagihara et al.): 0.076 µg/mL (≈ 0.104 µM)
- IC50 (thrombin; Fusetani et al., Hagihara et al., read-out: IC50 (thrombin), reported): 99 nM

Molecule: NC(=O)C(=O)C(N)Cc1ccccc1 (stereo not drawn) [3-Amino-2-oxo-4-phenylbutanoic acid amide]
- Ki (arginyl aminopeptidase): 1500 nM
- Ki (cytosol aminopeptidase): 1000 nM
- Ki [1]: 2500 nM

Molecule: CCCC(CCC)C(=O)N[C@@H](CC(=O)O)C(=O)N1CCC[C@H]1C(=O)N[C@@H](CCCNC(=N)N)C(=O)N1CCC[C@H]1C(=O)NCC(=O)NCC(=O)NCC(=O)NCC(=O)N[C@@H](CC(N)=O)C(=O)NCC(=O)N[C@@H](CC(=O)O)C(=O)N[C@@H](Cc1ccccc1)C(=O)N[C@@H](CCC(=O)O)C(=O)N[C@@H](CCC(=O)O)C(=O)N[C@H](C(=O)N1CCC[C@H]1C(=O)N[C@@H](CCC(=O)O)C(=O)N[C@@H](Cc1ccc(O)cc1)C(=O)N[C@@H](CC(C)C)C(=O)O)[C@@H](C)CC [Compound 9] ({Pentanoyl(2-Pr)}-DPRPGGGGNGDFEEIPEYL-OH)
- Ki (α-thrombin): 46.1 nM
